From patent publication US8768431B2, “Systems and methods for tissue imaging” (The Regents of the University of Michigan, priority 2007, dated 2014)

Legend:
[1] = system: 9L tumor cells; test: MRI tumor volume and log cell kill of 9L tumors; type: in vivo, rat
Experimental: (§1) Chemotherapy. Thirty-three animals with 9L tumors were entered into the study. When in vivo tumor volumes had reached […] were divided into four groups. Group 1 received 0.1 ml of drug vehicle (10% ethanol) and was used as a control group (n=7). Groups 2 to 4 received 6.65 mg/kg BCNU (n=7), 13.3 mg/kg BCNU (n=11), and 26.6 mg/kg BCNU (n=8), respectively, diluted in 10% ethanol. All treatments were administered by a single intraperitoneal injection on day 0. T2-weighted (T2, MRI transverse relaxation time) and diffusion MRI were performed every other day posttherapy to measure volumetric and cell density changes, respectively. Animal survival data were also obtained for all groups.
(§2) Diffusion MRI. Maps of tumor ADC values were acquired every other day up to 14 days posttherapy using a previously described method (see, e.g., Chenevert T L, et al., J Natl Cancer Inst. 2000; 92:2029-2036; herein incorporated by reference in its entirety). Briefly, a trace diffusion-weighted multislice spin echo sequence (with motion compensation and navigator echo) was used to acquire 13 slices with two different diffusion weightings [b1=100 sec/mm^2; b2=1248 sec/mm^2; image slice thickness=1 mm; image matrix=128×128 (0-256); field of view=30×30 mm; echo time=60 milliseconds]. During all MRI procedures, the animals were anesthesized with 1.5% isoflurane, and body temperature was maintained at 37° C. using a heated water-recirculating pad. The images acquired with b1 were essentially T2-weighted images, and these were used to segment the tumor from the normal brain for volumetric analysis using an “in-house” region drawing tool developed in MATLAB (Natick, Mass.).
(§3) Tumor Cell Kill Calculations and Statistical Analysis. The quantification of tumor cell kill from serially volumetric imaging data for each animal was accomplished as previously described (see, e.g., Ross B D, et al., Proc Natl Acad Sci USA. 1998; 95:7012-7017; herein incorporated by reference in its entirety). In brief, log(cell kill)[…]log10[Vpre/Vpost], where V represents the tumor volume from MRI. Linear least squares analysis was used to measure the statistical significance of trends in the BCNU dose dependence of fDM volume, animal survival, and log cell kill, and in the correlation of fDM response with survival and cell kill. When two groups were compared, a one-tailed Student's /test was used. Both linear least squares and Student's t test were performed using Microsoft Excel (Microsoft, Redmond, Wash.). To compare the median survival of all four animal groups, a log rank test was performed using Prism (GraphPad Software, Inc., San Diego, Calif.).

[2] = system: 9L tumors; test: Animal survival of rats with intracerebral 9L tumors; type: in vivo, rat; conditions: for median survival: rat 9L tumors, control 7 days
Experimental: (§4) Intracranial Tumor Implantation. All animal works were carried out in the animal facility of the University of Michigan (Ann Arbor, Mich.) in accordance with federal, local, and institutional guidelines. Intracerebral brain tumors were implanted in male Fischer 344 rats (Charles River Breeding Laboratories, Wilmington, Mass.) weighing between 125 and 150 g. Animals were anesthesized by intraperitoneal administration of a ketamine (87 mg/kg)/xylazine (13 mg/kg) mixture. A small skin incision was made over the right hemisphere, and a 1-mm-diameter burr hole was drilled through the skull. A sterile suspension of 1×10^5 9L cells in 5 μl of serum-free medium was introduced through a 27-gauge needle inserted to a depth of 3 mm. Rats were allowed to recover after tilling the burr hole with bone wax and suturing the skin closed.
as §1, §3

[3] = system: 9L tumors; test: fDM / diffusion MRI of intracerebral 9L tumors after BCNU; type: in vivo, rat; conditions: for group mean VR: ±SEM
Experimental: as §4, §1, §2
Image Registration and fDM. An important part of fDM analysis is the registration of parametric ADC maps acquired posttherapy to baseline ADC maps acquired before treatment. Image registration was performed using an automated linear affine coregistration algorithm (MIAMI Fuse; University of Michigan, Ann Arbor, Mich.) to maximize mutual information between the two temporally distinct three-dimensional data sets (see, e.g., Meyer C R, et al., Med Image Anal. 1997; 1:195-206; herein incorporated by reference in its entirety). Following registration and tumor segmentation of voxels within the tumor both at baseline and on day 4, fDM statistics were calculated. Firstly, ADC values of voxels posttherapy were plotted as a function of baseline ADC values. These tumor voxels were then further segmented into three regions based on an upper threshold and a lower threshold of ADC change. That is, tumor voxels that had increased ADC above the upper threshold were region I (VR, red voxels), voxels that had decreased below the lower threshold were region 2 (VB, blue voxels), and all other voxels were region 3 (VG, green voxels). A comparison between treatment groups and the measurement of fDM dose dependence was accomplished to optimize the sensitivity of the thresholds used (±0.4×10^−9 m^2/sec). Normalized volumes were then calculated for each animal, and group statistics were calculated.

[4] = system: 9L tumors; test: Histopathology (H&E) of fDM regions of 9L tumors; type: in vivo, rat; conditions: 6.67 mg/kg BCNU; ×40 objective
Experimental: Histopathology. In a separate study consisting of eight animals, two animals per treatment group were imaged pretreatment and again at 6 to 7 days posttherapy. Following the second imaging session, animals were euthanized, and the brains were fixed in 10% paraformaldehyde. After 48 hours, fixed tissues were transferred to 70% ethanol and embedded in paraffin. Formalin-fixed paraffin-embedded specimens were serially sectioned and slide-mounted. Sections were stained with hematoxylin and eosin (H&E) and compared to fDMs.

[5] = system: PC3^Luc metastatic bone lesions; test: MRI tumor volume of PC3Luc bone lesions; type: in vivo, SCID mice
Text: (§5) Magnetic Resonance Imaging. […] For MRI examination, mice were anesthetized with a 2% […] and maintained at 37 C, using a heated water bed, inside a 9.4-T Varian MR scanner (120-mm clear horizontal bore, Varian, Palo Alto, Calif.) and a double-tuned volume radiofrequency coil. A trace diffusion-weighted multi-slice spin echo sequence was used to acquire 15 slices with two different diffusion weightings (b1=184 s/mm^2, =1106 s/mm^2, slice thickness=0.5 mm, image matrix64×128, field of view=15×15 mm; TE=40 ms, TR=3.5 s). The z-gadient first moment was zeroed to reduce the dominant source of motion artifact as well as a 32-point navigator echo was prepended to each phase-encode echo. The phase deviation of each navigator echo relative to their mean was subtracted from the respective image echoes prior to the phase-encode Fourier transform. Images were acquired prior to treatment and subsequently 2 times per week. The low b-factor images were essentially T2-weighted to allow tumor volume measurements. The tumor boundary was manually defined on each slice and then integrated across slices to provide a volume estimate.

[6] = system: PC3^Luc metastatic bone lesions; test: fDM analysis of metastatic bone lesions of PC3Luc model; type: in vivo, SCID mice; conditions: for percentage of increased ADC (fDM), representative treated animal: docetaxel 40 mg/kg/wk×3
Experimental: (§6) Mice. Male SCID mice (Charles River Laboratories, Wilmington, Mass.) were housed in specific pathogen free rooms at The University of Michigan AAALAC, International accredited facilities. For implantation of PC3^Luc cells, mice were anesthetized with 1.75% isotluorane/air anesthesia and 2×10^5 cells in 100 μl of sterile Dulbecco's PBS lacking Ca^+2and Mg^+2 (DPBS) were administered into the left ventricle of the heart.
as §5
Image Registration and fDM. An important part of fDM analysis is the registration of post-treatment ADC maps to baseline pretreatment ADC maps. Image registration was performed using an automated linear affine coregistration algorithm to maximize mutual information between the two temporally distinct three-dimensional data sets (see, e.g., Meyer C R, et al., Med Image Anal 1997; 1:195-206; herein incorporated by reference in its entirety). Following registration and segmentation of voxels within the tumor both at baseline and on day 4, fDM statistics were calculated (I-Response™, Cedara Software, Mississauga, Ontario). Firstly, ADC values of voxels post therapy were plotted as a function of baseline ADC values. These voxels were then further segmented into three regions based on an upper and lower threshold of ADC change. Tumor voxels with an ADC increase above the upper threshold were depicted as red, whereas voxels that had decreased below the lower threshold were depicted as blue.

[7] = system: PC3^Luc tumor cells; test: Bioluminescence imaging of PC3Luc metastatic prostate cancer model; type: in vivo, SCID mice; conditions: docetaxel 40 mg/kg/wk×3, n=9; controls rose continuously
Experimental: Cell Lines. PC3 cells were transfected with a luciferase-encoding pLazarus retroviral construct using Fugene 6 (Roche Applied Science, Indianapolis, Ind.) as per manufacturer's instructions. Wildtype PC3 cells were cultured in RPMI-1640 supplemented with 10% FBS whereas transfected cells (PC3^Luc were maintained in selection media supplemented with 200 μg/ml G418 (Invitrogen; Carlsbad, Calif.).
as §6
Bioluminescence Detection. […] Bioluminescence studies were initiated prior to treatment for baseline values and performed throughout the experiment. For these studies, mice were anesthetized with a 2% isofluorane/air mixture and given a single i.p. dose of 150 mg/kg D-luciferin (Promega; Madison, Wis.) in normal saline. […] Results were analyzed using Living Image® software provided with the Xenogen imaging system. Signal intensity was quantified as the sum of all detected photon counts within a uniform region-of-interest (ROI) manually placed during data post processing.

[8] = 6.65 mg/kg BCNU, day 4 posttreatment
[9] = 26.6 mg/kg BCNU, day 4 posttreatment
[10] = p<0.05, treated n=7 vs control n=5

O=NN(CCCl)C(=O)NCCCl [BCNU]
log cell kill ([1]; 6.65 mg/kg BCNU, control −0.09±0.04): −0.25±0.08 | log cell kill ([1]; 13.3 mg/kg BCNU): 1.28±0.18 | log cell kill ([1]; 26.6 mg/kg BCNU): 3.22±0.51 | gradient of least squares fit, normalized tumor volume as a function of dose ([1]; 4 days posttreatment, 0-26.6 mg/kg BCNU, P=0.004): −4.0±1.3 | median survival ([2]; 6.65 mg/kg BCNU single i.p.): 13 days posttherapy | median survival ([2]; 13.3 mg/kg BCNU single i.p.): 23.5 days posttherapy | median survival ([2]; 26.6 mg/kg BCNU single i.p.): 35.5 days posttherapy | animal survival relative to the control group ([2]; 6.65-26.6 mg/kg BCNU, log rank P<0.05): dose-dependent increase in animal survival | mean ADC change ([3]; 6.65 mg/kg BCNU, day 4, control −0.8±2.7%): 10.7±2.2% | group mean VR ([3]; 6.65 mg/kg BCNU, day 4, control 3.9±1.7): 10.6±2.8% | VB (tumor volume with decreased ADC), representative animal [3, 8]: 2.6% | VR (tumor volume with increased ADC), representative animal [3, 8]: 7.7% | mean ADC change (ΔADC) ([3]; 13.3 mg/kg BCNU, day 4): 22.9±5.3% | group mean VR ([3]; 13.3 mg/kg BCNU, day 4): 28.7±8.0% | VR (tumor volume with increased ADC), representative animal ([3]; 13.3 mg/kg BCNU, day 4 posttreatment): 30% | mean ADC change ([3]; 26.6 mg/kg BCNU, day 4): 49.0±9.7% | group mean VR ([3]; 26.6 mg/kg BCNU, day 4): 62.0 ±9.0% | VB (tumor volume with decreased ADC), representative animal [3, 9]: 0.3% | VR (tumor volume with increased ADC), representative animal [3, 9]: 90.6% | best-fit gradient of VR as a function of drug dose ([3]; day 4 posttreatment, threshold ±0.4×10^−9 m^2/sec, P=5.8×10^−6): 2.30 ± 0.40 kg/mg | active mitoses in low-diffusion (VB) region [4]: 153 mitoses in 10 high-power fields | mitoses in VR region [4]: 96 mitoses in 10 high-power fields

CC(=O)O[C@@]12CO[C@@H]1C[C@H](O)[C@@]1(C)C(=O)[C@H](O)C3=C(C)[C@@H](OC(=O)[C@H](O)[C@@H](NC(=O)OC(C)(C)C)c4ccccc4)C[C@@](O)([C@@H](OC(=O)c4ccccc4)[C@H]21)C3(C)C [docetaxel]
MRI tumor volumes, outcome of therapy ([5]; control tumors kept growing, treated tumors did not): efficacious | time at which tumor volumes differ significantly from control [5, 10]: 11 day post-treatment initiation | percentage of increased ADC (fDM), representative treated animal ([6]; day 7 post initiation): 4.0% | percentage of increased ADC (fDM), representative treated animal ([6]; day 14 post initiation): 30.0% | percentage of increased ADC (fDM), representative treated animal ([6]; day 18 post initiation): 53.7% | time at which fDM values differ significantly from control [6, 10]: 7 days post-treatment | mean changes in tumor diffusion by fDM ([6]; three week treatment period, treated n=7): progressively increasing fDM diffusion changes | mean photon counts (luciferase activity) [7]: remained stable throughout the experiment
